Source: ChEMBL document CHEMBL6121018, “Targeting JNK3 for Alzheimer's disease: Design and synthesis of novel inhibitors with aryl group diversity utilizing wide pocket” (Eur J Med Chem, 2025)

Assays:
[1] = in vitro; details: human, plasma
Description: Stability in human plasma assessed as parent compound remaining at 30 mins

[2] = in vitro; details: human, plasma; remark: listed apart in the source
Description: Stability in human plasma assessed as parent compound remaining at 60 mins

[3] = target: T1, Mitogen-activated protein kinase 10 (Homo sapiens, UniProt P53779); test: Inhibition of JNK3 (unknown origin) using ATF as substrate in presence of [gamma-33P]ATP incubated for 40 mins by scintillation counter analysis
T1 sequence (P53779 whole entry): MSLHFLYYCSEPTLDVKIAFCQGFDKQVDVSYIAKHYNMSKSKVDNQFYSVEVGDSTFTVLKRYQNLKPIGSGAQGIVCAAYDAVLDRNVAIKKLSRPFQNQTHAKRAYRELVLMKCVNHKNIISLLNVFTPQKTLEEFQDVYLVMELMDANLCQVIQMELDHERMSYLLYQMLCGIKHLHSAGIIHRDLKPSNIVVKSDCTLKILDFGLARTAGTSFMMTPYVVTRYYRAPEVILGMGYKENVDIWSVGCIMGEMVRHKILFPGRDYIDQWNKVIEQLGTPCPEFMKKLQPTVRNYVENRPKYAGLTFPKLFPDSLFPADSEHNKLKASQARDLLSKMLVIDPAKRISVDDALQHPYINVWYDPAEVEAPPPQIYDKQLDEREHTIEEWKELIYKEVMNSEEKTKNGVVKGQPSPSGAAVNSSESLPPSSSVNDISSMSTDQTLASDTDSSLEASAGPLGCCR

[4] = in vitro; details: Sprague-Dawley, rat, primary cortical neurons
Description: Cytotoxicity against Sprague-Dawley rat Primary cortical neuron assessed as cell viability incubated for 24 hrs by MTT assay

[5] = target: Glycogen synthase kinase-3 beta (Homo sapiens, UniProt P49841); test: Inhibition of GSK3beta (unknown origin) using 33P-ATP as substrate incubated for 2 hrs by P81 filter-binding method
Chain of Glycogen synthase kinase-3 beta (P49841 whole entry): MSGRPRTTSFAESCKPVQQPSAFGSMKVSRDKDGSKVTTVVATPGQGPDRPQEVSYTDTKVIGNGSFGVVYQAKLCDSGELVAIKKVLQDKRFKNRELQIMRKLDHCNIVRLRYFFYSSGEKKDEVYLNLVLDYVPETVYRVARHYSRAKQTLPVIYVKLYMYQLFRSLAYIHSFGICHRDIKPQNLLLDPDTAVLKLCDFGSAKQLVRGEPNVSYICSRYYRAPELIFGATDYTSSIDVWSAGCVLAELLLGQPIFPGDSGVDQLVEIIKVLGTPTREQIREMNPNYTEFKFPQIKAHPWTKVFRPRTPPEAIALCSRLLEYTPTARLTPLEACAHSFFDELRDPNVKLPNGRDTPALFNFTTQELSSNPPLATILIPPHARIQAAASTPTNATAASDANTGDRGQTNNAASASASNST

[6] = target: Glycogen synthase kinase-3 alpha (Homo sapiens, UniProt P49840); test: Inhibition of GSK3alpha (unknown origin) using 33P-ATP as substrate incubated for 2 hrs by P81 filter-binding method
Chain of Glycogen synthase kinase-3 alpha (P49840 whole entry): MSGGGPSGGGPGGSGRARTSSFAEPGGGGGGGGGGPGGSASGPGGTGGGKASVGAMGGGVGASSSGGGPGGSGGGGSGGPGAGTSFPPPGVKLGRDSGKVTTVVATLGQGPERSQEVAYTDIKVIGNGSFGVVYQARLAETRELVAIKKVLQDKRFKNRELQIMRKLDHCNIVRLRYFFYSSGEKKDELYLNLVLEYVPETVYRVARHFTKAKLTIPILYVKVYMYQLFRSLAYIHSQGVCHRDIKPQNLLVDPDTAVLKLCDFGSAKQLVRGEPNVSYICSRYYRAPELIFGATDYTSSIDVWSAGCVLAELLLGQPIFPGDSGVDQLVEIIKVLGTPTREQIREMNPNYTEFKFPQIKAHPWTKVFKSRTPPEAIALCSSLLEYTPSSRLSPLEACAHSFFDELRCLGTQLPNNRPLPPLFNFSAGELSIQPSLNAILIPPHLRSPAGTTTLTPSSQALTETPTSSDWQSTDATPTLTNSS

[7] = target: Mitogen-activated protein kinase 9 (Homo sapiens, UniProt P45984)
Chain of Mitogen-activated protein kinase 9 (P45984 whole entry): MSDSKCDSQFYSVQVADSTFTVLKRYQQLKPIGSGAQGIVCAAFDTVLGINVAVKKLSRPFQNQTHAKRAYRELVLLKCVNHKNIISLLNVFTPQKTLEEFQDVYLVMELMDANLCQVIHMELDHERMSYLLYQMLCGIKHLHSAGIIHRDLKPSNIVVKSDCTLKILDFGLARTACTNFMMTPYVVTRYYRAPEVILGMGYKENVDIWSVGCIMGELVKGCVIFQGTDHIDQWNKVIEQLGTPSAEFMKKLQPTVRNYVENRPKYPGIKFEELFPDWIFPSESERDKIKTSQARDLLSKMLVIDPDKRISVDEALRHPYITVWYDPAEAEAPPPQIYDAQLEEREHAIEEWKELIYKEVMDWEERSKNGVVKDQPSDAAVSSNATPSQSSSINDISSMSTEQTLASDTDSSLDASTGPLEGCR
Description: Inhibition of JNK2 (unknown origin) using 33P-ATP as substrate incubated for 2 hrs by P81 filter-binding method

[8] = target: Mitogen-activated protein kinase 8 (Homo sapiens, UniProt P45983)
Chain of Mitogen-activated protein kinase 8 (P45983 whole entry): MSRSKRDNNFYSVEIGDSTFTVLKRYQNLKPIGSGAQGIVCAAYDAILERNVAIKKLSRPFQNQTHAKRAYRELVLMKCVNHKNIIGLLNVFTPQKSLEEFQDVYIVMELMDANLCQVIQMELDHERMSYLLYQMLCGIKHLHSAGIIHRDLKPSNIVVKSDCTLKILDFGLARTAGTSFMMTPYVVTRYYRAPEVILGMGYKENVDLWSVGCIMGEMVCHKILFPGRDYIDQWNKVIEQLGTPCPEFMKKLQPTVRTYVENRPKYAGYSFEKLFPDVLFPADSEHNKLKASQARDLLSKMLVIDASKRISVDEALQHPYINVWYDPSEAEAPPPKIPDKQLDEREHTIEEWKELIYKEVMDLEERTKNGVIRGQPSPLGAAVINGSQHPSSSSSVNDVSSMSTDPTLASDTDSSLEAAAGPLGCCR
Description: Inhibition of JNK1 (unknown origin) using 33P-ATP as substrate incubated for 2 hrs by P81 filter-binding method

[9] = target: Mitogen-activated protein kinase 14 (Homo sapiens, UniProt Q16539)
Chain of Mitogen-activated protein kinase 14 (Q16539 whole entry): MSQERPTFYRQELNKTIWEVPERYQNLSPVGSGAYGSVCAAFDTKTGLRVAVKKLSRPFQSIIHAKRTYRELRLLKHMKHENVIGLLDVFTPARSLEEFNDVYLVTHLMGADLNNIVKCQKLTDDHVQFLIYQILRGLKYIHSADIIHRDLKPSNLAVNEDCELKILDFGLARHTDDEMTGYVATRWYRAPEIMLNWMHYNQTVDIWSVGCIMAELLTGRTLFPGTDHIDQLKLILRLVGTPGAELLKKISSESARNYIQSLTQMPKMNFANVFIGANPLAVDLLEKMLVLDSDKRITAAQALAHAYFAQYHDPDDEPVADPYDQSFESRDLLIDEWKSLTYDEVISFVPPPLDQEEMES
Description: Inhibition of p38alpha (unknown origin) using 33P-ATP as substrate incubated for 2 hrs by P81 filter-binding method

[10] = target: T1, Mitogen-activated protein kinase 10; test: Inhibition of JNK3 (unknown origin)
[11] = test system: Cortical neurone; test: (§1) Neuroprotective activity against amyloid beta (1 to 42 residues)-induced Sprague-Dawley rat primary cortical neurons assessed as cell viability at 10 uM pretreated with compound for 90 mins followed by amyloid beta (1 to 42 residues) induction for 24 hrs and measured on day 5 by MTT assay (reference value: 100%); details: 121.5 h, read-out: Activity
[12] = in vitro; details: human, liver microsomes
[13] = in vitro; details: PAMPA
Description: Permeability coefficient of compound by PAMPA

[14] = test system: Cortical neurone; test: as §1, with “at 20” for “at 10”; format: functional; details: 121.5 h, time 7290 min, read-out: Activity

CCOC(=O)[C@H](CCc1ccccc1)N[C@@H](C)C(=O)N1CCC[C@H]1C(=O)O
remaining at 0.5 h [1]: 95%
remaining at 1 h [2]: 90%

CN1CCN(c2ccc(Nc3nccc(-n4cc(/C=C/c5ccccc5)c(C(N)=O)n4)n3)cc2)CC1
IC50 [3]: 276 nM
viability at 24 h [4]: 104%

CCOC(=O)c1nn(-c2ccnc(Nc3ccc(N4CCC(N(C)C)CC4)cc3)n2)cc1/C=C/c1cccc(Br)c1
IC50 [3]: 8330 nM

CN(C)C1CCN(c2ccc(Nc3nccc(-n4cc(/C=C/c5ccccc5)c(C(N)=O)n4)n3)cc2)CC1
IC50 [3]: 96 nM
viability at 24 h [4]: 102%

NC(=O)c1nn(-c2ccnc(N[C@H]3CCCN(C(=O)C4CC4)C3)n2)cc1/C=C/c1ccccc1
IC50 [5]: 14 nM
IC50 [6]: 35 nM
IC50 [7]: 450 nM
IC50 [8]: 80 nM
IC50 [9]: Not_active

N#CCc1cc(-c2ccc(Cl)c(Cl)c2)n(-c2ccnc(N[C@H]3CCN(C(=O)C4CC4)C3)n2)n1
IC50 [10]: 227 nM
viability at 10 µM [11]: 14%
viability at 24 h [4]: 103%

COc1ccc(CCN(C)CCCC(C#N)(c2ccc(OC)c(OC)c2)C(C)C)cc1OC (stereo not drawn)
remaining at 1 h [12]: 20.3%

CC(=O)[C@H]1CC[C@H]2[C@@H]3CCC4=CC(=O)CC[C@]4(C)[C@H]3CC[C@]12C [PROGESTERONE]
Papp [13]: 40.7 ×10⁻⁶ cm/s

Oc1ccc(/C=C/c2cc(O)cc(O)c2)cc1 [RESVERATROL]
viability at 20 µM [14]: 85%
